Results published in ChEMBL document CHEMBL1157104 (J Med Chem, 2010).

Experiments:
[1] = target: T1, Progesterone receptor (Homo sapiens) (UniProt P06401); assay: Binding affinity to progesterone receptor relative to R5020
T1 sequence (whole entry): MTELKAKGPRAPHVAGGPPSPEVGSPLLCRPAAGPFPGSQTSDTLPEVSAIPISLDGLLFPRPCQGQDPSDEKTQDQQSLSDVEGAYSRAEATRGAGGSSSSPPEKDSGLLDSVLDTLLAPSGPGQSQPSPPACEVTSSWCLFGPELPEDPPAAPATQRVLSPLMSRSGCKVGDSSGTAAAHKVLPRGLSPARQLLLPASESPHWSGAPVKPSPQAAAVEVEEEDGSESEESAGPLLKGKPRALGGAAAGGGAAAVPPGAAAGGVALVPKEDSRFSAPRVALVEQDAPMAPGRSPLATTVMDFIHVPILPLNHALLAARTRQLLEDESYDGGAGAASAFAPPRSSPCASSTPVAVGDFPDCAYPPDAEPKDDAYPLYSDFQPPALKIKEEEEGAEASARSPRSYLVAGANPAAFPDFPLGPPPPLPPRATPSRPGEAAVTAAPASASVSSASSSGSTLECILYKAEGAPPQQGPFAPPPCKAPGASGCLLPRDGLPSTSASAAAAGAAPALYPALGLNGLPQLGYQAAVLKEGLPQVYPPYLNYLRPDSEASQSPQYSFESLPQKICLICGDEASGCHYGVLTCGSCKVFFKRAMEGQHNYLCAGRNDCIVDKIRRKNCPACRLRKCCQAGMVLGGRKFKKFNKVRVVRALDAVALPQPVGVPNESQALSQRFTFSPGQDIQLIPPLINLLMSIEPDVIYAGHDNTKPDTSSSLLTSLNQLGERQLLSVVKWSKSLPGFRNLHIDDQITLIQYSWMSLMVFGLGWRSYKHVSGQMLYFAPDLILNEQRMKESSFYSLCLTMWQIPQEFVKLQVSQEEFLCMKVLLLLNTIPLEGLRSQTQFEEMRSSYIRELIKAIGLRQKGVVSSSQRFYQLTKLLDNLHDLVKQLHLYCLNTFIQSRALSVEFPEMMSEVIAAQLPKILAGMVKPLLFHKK

Progesterone receptor = target: T2, Progesterone receptor (Homo sapiens, UniProt P06401); assay: Binding affinity to progesterone receptor
T2 sequence (P06401 whole entry): T1 sequence (whole entry)

| SMILES | relative binding affinity (RBA) [1] | Kd (Progesterone receptor) |
| --- | --- | --- |
| CC1(C)OC(=S)Nc2ccc(-c3ccc(C#N)n3CCCF)cc21 | 0.99 | – |
| CCC(=O)[C@@]1(C)CC[C@H]2[C@@H]3CCC4=CC(=O)CCC4=C3CC[C@@]21C [PROMEGESTONE] | – | 0.4 nM |
| CC1(C)OC(=S)Nc2ccc(-c3ccc(C#N)n3CCF)cc21 | 18.5 | – |
